# Measured values: patent US5352608A (priority 1992, dated 1994)
# Where two headings read alike, the source gives them in different places.
# Assays:
# [1] = tested on: tellurite reductase activity, R. sphaeroides BC17; assay: TeO3^2- -dependent FADH2 oxidation in subcellular fractions; format: biochemical, Rhodobacter sphaeroides; settings: for FADH2 oxidation: 100 μg/ml K2 TeO3
# R. sphaeroides 2.4.1 = assay: Isolation of tellurium from membrane fractions (Te^IV to Te^o conversion); format: cell-based, Rhodobacter sphaeroides
# Description: Two one-liter cultures of R. sphaeroides 2.4.1 were grown photoheterotrophically (10 W/m^2 incident light intensity) in SMM containing 0.4% succinate to a cell density of approximately 1.5 1.5×10^9 cells/ml. Prior to inoculation one flask was supplemented with 275 mg K2 TeO3 (equivalent to 138.3 mg Te^IV) to give a final medium concentration of […] K2 TeO3.
# 850 mg of crude membrane-metal complex was isolated. After purification and extraction with acetone:methanol and ethanol, 203 mg of a finely-divided metallic material resulted. Analysis of a 50.4 mg sample of this material identified 23.2 mg of Te^o (a minimum net purity of 46%). The minimum Te^o deposited in the one-liter culture, therefore, was 93 mg (203 mg×0.46) or 0.7333 mmole. Since the growth medium initially contained 138.3 mg of Te^IV, a minimum Te^IV to Te^o conversion of 67% was obtained.
# [2] = tested on: Rhodopseudomonas palustris 1e5; assay: Intrinsic HLR to TeO3^2- (MIC); format: cell-based
# [3] = tested on: Rhodobacter sphaeroides 2.4.7; assay: Intrinsic HLR to TeO3^2- (MIC); format: cell-based
# [4] = tested on: Rhodobacter sphaeroides RS2; assay: Intrinsic HLR to TeO3^2- (MIC); format: cell-based; settings: for MIC of RS2 lower than strain 2.4.1, 2.4.7 or WS8: approximately
# [5] = tested on: Rhodobacter sphaeroides 2.4.1; format: cell-based
# R. sphaeroides MM1004 = format: cell-based, Rhodobacter sphaeroides; settings: SMM succinate
# Description: (§1) All Proteobacteria were grown at 30° C. with the exception of E. coli which was cultured at 37° C. on a Gyrotary shaker. Cultures of R. sphaeroides and R. gelatinosus were grown in LB, YP, or SMM containing either 0.4% succinate, 0.4% malate, or 0.4% butyrate as a carbon source. Cultures of R. capsulatus were grown in RCVB minimal medium containing 0.4% malate as a carbon source; R. rubrum was grown in SMM containing 0.4% malate, and 0.1% yeast extract. R. palustris and R. viridis were grown in SMM containing 0.4% malate, 0.1% yeast extract, and 50 μg/ml each of p-aminobenzoic acid and cyanocobalamin. […] Anaerobic-dark growth of R. sphaeroides on SMM medium containing DMSO, and photoheterotrophic growth conditions have been previously reported.
# (§2) Several growth conditions were examined to determine requirements for tellurite reduction in vivo. Table 5 indicates the growth conditions tested.
# (§3) ^a MIC were determined in SMM containing succinate at 30° C.
# (§4) ^c Supplemented with 60 mM DMSO.
# R. sphaeroides 2.4.1ΔS = assay: Intrinsic HLR to tellurite in R. sphaeroides mutants (MIC); format: cell-based, Rhodobacter sphaeroides; settings: for MIC K2 TeO3: SMM succinate
# Description: as §1, §2, §3, §4
# R. sphaeroides BC17 = assay: as above; format: cell-based, Rhodobacter sphaeroides; settings: for MIC K2 TeO3: SMM succinate
# Description: as §1, §2, §3, §4
# R. sphaeroides PRKA^- = assay: as above; format: cell-based, Rhodobacter sphaeroides; settings: for MIC K2 TeO3: SMM succinate; for Increase in TeO3^2- sensitivity: prkA deletion
# Description: as §1, §2, §3, §4
# R. sphaeroides PUFB1 = assay: as above; format: cell-based, Rhodobacter sphaeroides; settings: SMM succinate; aerobic; ( ) = resistance but no deposition of Te^0
# Description: as §1, §2, §3, §4
# R. sphaeroides 2.4.1-Ga = assay: as above; format: cell-based, Rhodobacter sphaeroides; settings: for MIC K2 TeO3: SMM succinate
# Description: as §1, §2, §3, §4
# R. sphaeroides PRKB^- = assay: as above; format: cell-based, Rhodobacter sphaeroides; settings: for MIC K2 TeO3: SMM succinate
# Description: as §1, §2, §3, §4
# R. sphaeroides CFXB^- = assay: as above; format: cell-based, Rhodobacter sphaeroides; settings: for MIC K2 TeO3: SMM succinate
# Description: as §1, §2, §3, §4
# [6] = tested on: R. sphaeroides CFXA^- B^-; assay: as above; format: cell-based, Rhodobacter sphaeroides; settings: for MIC K2 TeO3: SMM succinate
# Description: as §1, §2, §3, §4
# [7] = tested on: R. sphaeroides PRKA^- B^-; assay: as above; format: cell-based, Rhodobacter sphaeroides; settings: for MIC K2 TeO3: SMM succinate
# Description: as §1, §2, §3, §4
# R. sphaeroides CFXA^- = assay: as above; format: cell-based, Rhodobacter sphaeroides; settings: for MIC K2 TeO3: SMM succinate; for Increase in TeO3^2- sensitivity: cfxA deletion
# Description: as §1, §2, §3, §4
# R. sphaeroides MM1006 = assay: as above; format: cell-based, Rhodobacter sphaeroides; settings: SMM succinate; aerobic; ( ) = resistance but no deposition of Te^0
# Description: as §1, §2, §3, §4
# R. sphaeroides CYCA1 = assay: as above; format: cell-based, Rhodobacter sphaeroides; settings: SMM succinate; aerobic; ( ) = resistance but no deposition of Te^0
# Description: as §1, §2, §3, §4
# R. sphaeroides PUC705B = assay: as above; format: cell-based, Rhodobacter sphaeroides; settings: SMM succinate
# Description: as §1, §2, §3, §4
# R. sphaeroides PUHA1 = assay: as above; format: cell-based, Rhodobacter sphaeroides; settings: for MIC K2 TeO3: SMM succinate
# Description: as §1, §2, §3, §4
# [8] = photosynthetic and anaerobic-dark/DMSO, at least
# [9] = aerobic, ( ) = resistance but no deposition of Te^0
structure (smiles),measurement,setting,value
O=[Te]([O-])[O-].[K+].[K+] [K2 TeO3],FADH2 oxidation,[1]; cytoplasm,20 nmol/min/mg
same,TeO3^2- -dependent FADH2 oxidase activity in words,[1]; in vitro,"Neither BC17 nor PUHA1, two mutants which were previously shown to be tellurite sensitive under both aerobic and anaerobic-dark/DMSO growth conditions, expressed significant levels"
same,FADH2 oxidation,[1]; membrane,51 nmol/min/mg
same,FADH2 oxidation,[1]; periplasm,2 nmol/min/mg
same,Te^IV to Te^o conversion,"R. sphaeroides 2.4.1; 250 μg/ml K2 TeO3, photoheterotrophic 10 W/m^2, minimum",≥ 67%
same,Localization of deposit after subcellular fractionation,R. sphaeroides 2.4.1; discontinuous sucrose gradient,localized to the cytoplasmic membrane
same,MIC K2 TeO3,"[2]; aerobic, minimal medium",200 µg/mL
same,MIC K2 TeO3,"[2]; photosynthetic, 10 W/m^2",100 µg/mL
same,MIC K2 TeO3,"[3]; aerobic, minimal medium",800 µg/mL
same,MIC K2 TeO3,"[3]; photosynthetic, 10 W/m^2",500 µg/mL
same,MIC K2 TeO3,"[4]; aerobic, minimal medium",400 µg/mL
same,"MIC of RS2 lower than strain 2.4.1, 2.4.7 or WS8",[4],approximately two-to three fold
same,"MIC of RS2 lower than strain 2.4.1, 2.4.7 or WS8",[4]; listed as tellurite,approximately two- to three-fold
same,MIC K2 TeO3,"[4]; photosynthetic, 10 W/m^2",250 µg/mL
same,MIC Low-PO4^3- Medium,[5],600 µg/mL
same,MIC Standard Medium,[5],600 µg/mL
same,MIC ratio 10 W/m^2 vs 3 W/m^2,[5],at least two-fold
same,MIC ratio aerobically- vs. photosynthetically-grown,[5],two- to three-fold
same,MIC relative to E. coli,[5],at least 80 times
same,Reduction in TeO3^2- resistance with supplement,[5],thirty- to forty-fold
same,Relative toxicity,[5],SeO4^2- >TeO4^2- >TeO3^2- >SeO3^2- >Rh2 O3.5H2 O
same,Resistance in words,[5],intrinsic high level resistance
same,MIC K2 TeO3,R. sphaeroides MM1004; aerobic,800 µg/mL
same,MIC K2 TeO3,R. sphaeroides MM1004; photosynthetic 10 W/m^2,550 µg/mL
same,Effect of 42-kb plasmid deletion on HLR,R. sphaeroides 2.4.1ΔS,did not diminish HLR to TeO3^2-
same,MIC K2 TeO3,R. sphaeroides 2.4.1ΔS; aerobic,850 µg/mL
same,MIC K2 TeO3,"R. sphaeroides 2.4.1ΔS; anaerobic-dark, 60 mM DMSO",150 µg/mL
same,MIC K2 TeO3,R. sphaeroides 2.4.1ΔS; photosynthetic 10 W/m^2,600 µg/mL
same,MIC K2 TeO3,R. sphaeroides BC17; aerobic,< 10 µg/mL
same,MIC K2 TeO3,"R. sphaeroides BC17; anaerobic-dark, 60 mM DMSO",< 10 µg/mL
same,Concentration to which strain is sensitive,R. sphaeroides BC17; all growth conditions,10 µg/mL
same,MIC K2 TeO3,R. sphaeroides PRKA^-; aerobic,350 µg/mL
same,MIC K2 TeO3,"R. sphaeroides PRKA^-; anaerobic-dark, 60 mM DMSO",60 µg/mL
same,MIC K2 TeO3,R. sphaeroides PRKA^-; photosynthetic 10 W/m^2,100 µg/mL
same,Increase in TeO3^2- sensitivity,R. sphaeroides PRKA^-; aerobic,two-fold
same,Increase in TeO3^2- sensitivity,R. sphaeroides PRKA^-; [8],at least three- to five-fold
same,MIC K2 TeO3,R. sphaeroides PUFB1,400 µg/mL
same,MIC K2 TeO3,R. sphaeroides 2.4.1-Ga; aerobic,600 µg/mL
same,MIC K2 TeO3,"R. sphaeroides 2.4.1-Ga; anaerobic-dark, 60 mM DMSO",100 µg/mL
same,MIC K2 TeO3,R. sphaeroides 2.4.1-Ga; photosynthetic 10 W/m^2,450 µg/mL
same,Increase in TeO3^2- sensitivity,R. sphaeroides 2.4.1-Ga; vs wild-type,20%
same,MIC K2 TeO3,R. sphaeroides PRKB^-; aerobic,800 µg/mL
same,MIC K2 TeO3,"R. sphaeroides PRKB^-; anaerobic-dark, 60 mM DMSO",150 µg/mL
same,MIC K2 TeO3,R. sphaeroides PRKB^-; photosynthetic 10 W/m^2,500 µg/mL
same,Diminution of HLR to TeO3^2-,R. sphaeroides PRKB^-; single mutation in prkB,10-20%
same,MIC K2 TeO3,R. sphaeroides CFXB^-; aerobic,750 µg/mL
same,MIC K2 TeO3,"R. sphaeroides CFXB^-; anaerobic-dark, 60 mM DMSO",150 µg/mL
same,MIC K2 TeO3,R. sphaeroides CFXB^-; photosynthetic 10 W/m^2,650 µg/mL
same,Diminution of HLR to TeO3^2-,R. sphaeroides CFXB^-; single mutation in cfxB,10-20%
same,MIC K2 TeO3,[6]; [9],200 µg/mL
same,MIC K2 TeO3,"[6]; anaerobic-dark, 60 mM DMSO",< 10 µg/mL
same,Concentration to which strain is resistant,[6]; aerobic,< 200 µg/mL
same,MIC K2 TeO3,[7]; [9],150 µg/mL
same,MIC K2 TeO3,"[7]; anaerobic-dark, 60 mM DMSO",< 10 µg/mL
same,Concentration to which strain is resistant,[7]; aerobic,< 200 µg/mL
same,MIC K2 TeO3,R. sphaeroides CFXA^-; aerobic,400 µg/mL
same,MIC K2 TeO3,"R. sphaeroides CFXA^-; anaerobic-dark, 60 mM DMSO",50 µg/mL
same,MIC K2 TeO3,R. sphaeroides CFXA^-; photosynthetic 10 W/m^2,100 µg/mL
same,Increase in TeO3^2- sensitivity,R. sphaeroides CFXA^-; aerobic,two-fold
same,Increase in TeO3^2- sensitivity,R. sphaeroides CFXA^-; [8],at least three- to five-fold
same,MIC K2 TeO3,R. sphaeroides MM1006,400 µg/mL
same,MIC K2 TeO3,R. sphaeroides CYCA1,400 µg/mL
same,MIC K2 TeO3,R. sphaeroides PUC705B; aerobic,850 µg/mL
same,MIC K2 TeO3,"R. sphaeroides PUC705B; anaerobic-dark, 60 mM DMSO",150 µg/mL
same,MIC K2 TeO3,R. sphaeroides PUC705B; photosynthetic 10 W/m^2,500 µg/mL
same,MIC K2 TeO3,R. sphaeroides PUHA1; aerobic,< 10 µg/mL
same,MIC K2 TeO3,"R. sphaeroides PUHA1; anaerobic-dark, 60 mM DMSO",< 10 µg/mL
same,Concentration to which strain is sensitive,R. sphaeroides PUHA1; all growth conditions,10 µg/mL
